One assay has as its system P815 cells. Briefly: P815 cell proliferation and viability (trypan blue counting). Conditions: treated daily with 10 μM. Type of assay: cell-based, murine. As for the experimental part:
(§1) FIG. 2: Effects of indolinone derivatives on neoplastic mast cell growth. […] Results (mean±SEM) represent averages of triplicate cultures.
(§2) KIT activity was determined by in vitro phosphorylation, as previously described (Ma et al, 1999a). The neoplastic mast cell line C2 and P815 have been previously described (Dunn et al, 1957; Lazarus et al, 1986; DeVinney and Gold, 1990), and their activating c-KIT mutations characterized (Tsujimura et al, 1994; Ma et al, 1999a). To determine cell proliferation and viability, cells from triplicate cultures were stained with trypan blue and counted in a hemocytometer. All experiments were repeated at least three times.

Assay [1] deals with platelet-derived growth factor receptor. Conditions: cited from earlier work.
The subject of assay [2] is fibroblast growth factor receptor. Conditions: cited from earlier work.
For the next assay, the system named is C2 cells. The assay is described as follows: C2 cell proliferation and viability (trypan blue counting). It is filed as cell-based, dog. Conditions: treated daily with 1 μM. As for the experimental part: as §1, §2
The target of assay [3] is T1, KIT with substitution of Tyr for Asp814 (P815 KIT) (Mus musculus, UniProt P05532, D818Y).
T1 construct: mutant KITs expressed in C2 and P815 cells; endogenous in cells; host or cells: P815 murine mastocytoma cells
T1 sequence (P05532 25-975 isoform P05532-2 D814Y): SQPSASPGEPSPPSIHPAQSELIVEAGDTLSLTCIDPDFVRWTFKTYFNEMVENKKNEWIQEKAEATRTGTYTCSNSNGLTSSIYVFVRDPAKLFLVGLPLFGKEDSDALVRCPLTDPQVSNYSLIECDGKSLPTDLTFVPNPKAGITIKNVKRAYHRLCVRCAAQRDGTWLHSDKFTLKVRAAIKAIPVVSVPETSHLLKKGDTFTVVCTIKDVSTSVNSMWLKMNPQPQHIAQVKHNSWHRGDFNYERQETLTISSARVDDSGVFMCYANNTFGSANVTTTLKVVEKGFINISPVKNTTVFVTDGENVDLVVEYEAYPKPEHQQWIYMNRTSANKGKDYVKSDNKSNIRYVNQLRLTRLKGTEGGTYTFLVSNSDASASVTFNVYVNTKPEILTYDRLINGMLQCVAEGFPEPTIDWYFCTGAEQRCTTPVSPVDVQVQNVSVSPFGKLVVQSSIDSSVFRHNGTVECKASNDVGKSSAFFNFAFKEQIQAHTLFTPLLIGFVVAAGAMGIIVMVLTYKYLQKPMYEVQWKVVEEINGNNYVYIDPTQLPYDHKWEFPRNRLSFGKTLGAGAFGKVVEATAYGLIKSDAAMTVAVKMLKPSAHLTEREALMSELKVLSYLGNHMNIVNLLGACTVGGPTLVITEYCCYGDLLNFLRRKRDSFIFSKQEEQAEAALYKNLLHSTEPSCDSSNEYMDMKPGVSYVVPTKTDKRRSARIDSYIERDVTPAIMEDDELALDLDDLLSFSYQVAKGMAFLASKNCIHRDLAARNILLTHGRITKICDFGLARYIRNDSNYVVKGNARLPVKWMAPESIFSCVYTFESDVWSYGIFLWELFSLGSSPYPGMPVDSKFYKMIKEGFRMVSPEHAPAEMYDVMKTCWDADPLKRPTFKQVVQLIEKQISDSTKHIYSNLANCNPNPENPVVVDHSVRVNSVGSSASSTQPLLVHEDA
Briefly: Phosphorylation of mutant KIT in P815 cells. Particulars: 40 μM, 30 min. It is filed as cell-based, murine. As for the experimental part: (§3) FIG. 1: Effects of indolinone derivatives on phosphorylation of wild-type and mutant KITs. […] The compound with the structure VII or structure VI are effective against KIT containing an activating juxtamembrane domain mutation in C2 cells.
as §2
For activating mutations in the kinase domain, the P815 murine mast cell tumor line (Dunn et al, 1957) was examined. P815 c-KIT contains a point mutation resulting in substitution of Tyr for Asp814, the equivalent position of human Asp816, which causes constitutive receptor activation (Tsujimura et al, 1994).

Another assay has as its system wild-type KIT. Briefly: Phosphorylation of wild-type KIT expressed in COS cells (anti-phosphotyrosine blot). Type of assay: cell-based. Particulars: 5 μM, 30 min, SCF 100 ng/ml 10 min. As for the experimental part: as §3, §2
A further assay addresses insulin receptor (Homo sapiens, UniProt P06213). Conditions: cited from earlier work.
Assay [4] has as its system KIT with juxtamembrane insertion mutation (C2 KIT). The assay is described as follows: Constitutive phosphorylation of mutant KIT in C2 dog mastocytoma cells. Type of assay: cell-based. Particulars: 5 μM. As for the experimental part: as §3, §2
The effects of these compounds on constitutive activation of KIT mutants expressed by neoplastic mast cells were then tested. For activating juxtamembrane mutations, the C2 dog mastocytoma cell line was studied (Lazarus et al, 1986; DeVinney and Gold, 1990), in which KIT is constitutively active due to a juxtamembrane insertion mutation (Ma et al, 1999a). […] The effects of these compounds on constitutive phosphorylation of KIT bearing in the juxtamembrane region either deletion of Trp556-Lys557 or substitution of Pro for Leu575, mutations previously identified in dog mastocytomas (Ma et al, 1999a) were also examined.

insulin receptor, sequence (P06213 28-1382, species assumed): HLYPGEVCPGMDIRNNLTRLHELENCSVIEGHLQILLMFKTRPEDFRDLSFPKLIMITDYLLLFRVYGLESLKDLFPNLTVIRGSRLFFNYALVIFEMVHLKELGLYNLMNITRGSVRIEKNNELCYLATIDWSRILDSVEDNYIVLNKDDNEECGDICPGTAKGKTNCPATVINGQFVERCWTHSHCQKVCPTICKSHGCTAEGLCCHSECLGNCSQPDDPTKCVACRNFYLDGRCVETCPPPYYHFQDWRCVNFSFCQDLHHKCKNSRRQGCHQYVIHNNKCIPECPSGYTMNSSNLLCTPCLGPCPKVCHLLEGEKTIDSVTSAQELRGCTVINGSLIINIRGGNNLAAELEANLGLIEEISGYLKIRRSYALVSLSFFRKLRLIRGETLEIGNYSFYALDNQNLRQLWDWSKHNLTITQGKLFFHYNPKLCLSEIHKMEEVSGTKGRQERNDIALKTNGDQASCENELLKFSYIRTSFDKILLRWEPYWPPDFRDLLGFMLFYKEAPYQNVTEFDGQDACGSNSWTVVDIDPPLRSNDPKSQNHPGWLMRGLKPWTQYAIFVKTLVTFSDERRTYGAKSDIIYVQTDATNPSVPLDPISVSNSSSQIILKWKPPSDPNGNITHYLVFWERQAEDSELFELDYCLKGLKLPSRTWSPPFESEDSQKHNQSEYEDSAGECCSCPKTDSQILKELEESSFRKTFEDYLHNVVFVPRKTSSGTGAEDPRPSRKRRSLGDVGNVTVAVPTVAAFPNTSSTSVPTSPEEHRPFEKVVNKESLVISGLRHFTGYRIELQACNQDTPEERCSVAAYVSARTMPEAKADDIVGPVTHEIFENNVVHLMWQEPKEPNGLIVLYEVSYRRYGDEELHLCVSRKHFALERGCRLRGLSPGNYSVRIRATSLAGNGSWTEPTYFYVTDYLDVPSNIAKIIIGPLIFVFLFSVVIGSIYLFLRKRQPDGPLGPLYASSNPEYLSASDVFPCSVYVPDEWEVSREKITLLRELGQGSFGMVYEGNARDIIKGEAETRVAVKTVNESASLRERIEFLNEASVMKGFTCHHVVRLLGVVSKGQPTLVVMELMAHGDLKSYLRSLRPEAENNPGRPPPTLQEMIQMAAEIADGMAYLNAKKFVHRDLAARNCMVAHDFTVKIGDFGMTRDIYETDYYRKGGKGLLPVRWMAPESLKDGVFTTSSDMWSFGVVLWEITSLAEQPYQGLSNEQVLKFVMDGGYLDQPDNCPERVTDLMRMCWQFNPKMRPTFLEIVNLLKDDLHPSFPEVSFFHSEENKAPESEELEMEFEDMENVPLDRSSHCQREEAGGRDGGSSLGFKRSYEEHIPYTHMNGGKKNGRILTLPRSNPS

With `O=CN1CCN(c2ccc(/C=C3/C(=O)Nc4ccccc43)cc2)CC1` [structure VII], the “effect on P815 cell proliferation” value with P815 cells is on record as “killed”. Moreover, the “inhibition of platelet-derived growth factor receptor” value in assay [1] is “effective”. The “inhibition of fibroblast growth factor receptor” value in assay [2] was “effective”. In addition, the “effect on C2 cell proliferation” value with C2 cells is reported as “killed”. In addition, in assay [3], the “inhibition of phosphorylation of the P815 KIT mutant” value is on record as “not effectively inhibiting”. Moreover, the “effect on tyrosine phosphorylation of the wild-type receptor” value in the assay with wild-type KIT is given as “substantially reduce”. In addition, on insulin receptor, the “inhibition of insulin receptor” value is “effective”. Moreover, in assay [4], the “reduction of the constitutive C2 KIT phosphorylation” value is recorded as “approximately 50%”.

These data come from patent US6339100B1, “Methods for inhibiting mastocytosis” (The Trustees of Columbia University in the City of New York, priority 1999, dated 2002).
